Test results published in patent publication US20250026721A1, “COMPOUNDS AND METHODS FOR MODULATING RAS-PI3K” (Vividion Therapeutics, Inc., priority 2023, published 2025).

Biological target: T1, PIK3CA (Homo sapiens, UniProt P42336)
T1 construct: endogenous in cells; host or cells: Jurkat cell lysate
Assay: In vitro ELISA target engagement assay for PIK3CA in Jurkat cellular lysate (competition with PIK3CA Biotin Probe)
Format: binding
Conditions: 1 hour at rt, then 500 nM PIK3CA Biotin Probe, read-out: Elisa Target Engagement Assay (TE50)
Description: Example 3. In Vitro ELISA Target Engagement Assay for […] Engagement of compounds on PIK3CA were assessed in Jurkat cellular lysate via a sandwich ELISA. A solution of PIK3CA Biotin Probe was generated at 10 mM and used in the biological testing. […] Treatment Protocol: Jurkat cellular lysate was generated from frozen cell pellets. Cells were thawed on ice and resuspended in cold Dulbecco's phosphate buffered saline (DPBS) (12 mL/300 e^6 cells) then lysed by probe sonication (12×3 second pulses). Jurkat lysate was plated (50 μl/well) in Armadillo 96 well PCR plates (Thermo Fisher catalog number AB2396). The lysate was treated with serial dilutions of test compounds up to 200 μM and incubated for 1 hour at rt. Following compound incubation, PIK3CA Biotin Probe was added to a final concentration of 500 nM, and lysate was mixed by pipetting gently and incubated for an additional 1 hour at rt. The mixture was then diluted in 75 μL Dilution buffer. The mixture was centrifuged for 5 minutes at 4122 g and stored at −80° C. until ELISA TE detection. ELISA TE Detection: Quantification of PIK3CA TE was initiated by coating of the ELISA plate (Thermo Scientific White 384-Well Immuno plates; Thermo Fisher catalog number 460372). The capture antibody was diluted in plating buffer (1:83) and added to the ELISA plate, 20 μl/well, overnight at 4° C. The plate was then washed twice with PBST, 100 μl/well, and blocked with addition of blocking buffer (100 μl/well, 1 hour at rt). During block, treated and probe labeled lysate was thawed. After Block, the block buffer was removed and the thawed lysate was added to the ELISA plate, 30 μl/well, for 1.5 hours at rt. Following lysate incubation, the assay plate was washed 3 times with PBST, 100 μl/well. The Neutravidin-HRP was then diluted (1:500 in dilution buffer) and added for 1 hour at rt, 20 μl/well. Following incubation, the assay plate was washed 4 times with PBST, 100 μl/well, HRP substrate was added to plate, 20 μl/well and luminescence signal was read (Clariostar Plate Reader). For each compound the potency of target engagement (TE50) was determined using Graphpad Prism.

T1 sequence (P42336 whole entry): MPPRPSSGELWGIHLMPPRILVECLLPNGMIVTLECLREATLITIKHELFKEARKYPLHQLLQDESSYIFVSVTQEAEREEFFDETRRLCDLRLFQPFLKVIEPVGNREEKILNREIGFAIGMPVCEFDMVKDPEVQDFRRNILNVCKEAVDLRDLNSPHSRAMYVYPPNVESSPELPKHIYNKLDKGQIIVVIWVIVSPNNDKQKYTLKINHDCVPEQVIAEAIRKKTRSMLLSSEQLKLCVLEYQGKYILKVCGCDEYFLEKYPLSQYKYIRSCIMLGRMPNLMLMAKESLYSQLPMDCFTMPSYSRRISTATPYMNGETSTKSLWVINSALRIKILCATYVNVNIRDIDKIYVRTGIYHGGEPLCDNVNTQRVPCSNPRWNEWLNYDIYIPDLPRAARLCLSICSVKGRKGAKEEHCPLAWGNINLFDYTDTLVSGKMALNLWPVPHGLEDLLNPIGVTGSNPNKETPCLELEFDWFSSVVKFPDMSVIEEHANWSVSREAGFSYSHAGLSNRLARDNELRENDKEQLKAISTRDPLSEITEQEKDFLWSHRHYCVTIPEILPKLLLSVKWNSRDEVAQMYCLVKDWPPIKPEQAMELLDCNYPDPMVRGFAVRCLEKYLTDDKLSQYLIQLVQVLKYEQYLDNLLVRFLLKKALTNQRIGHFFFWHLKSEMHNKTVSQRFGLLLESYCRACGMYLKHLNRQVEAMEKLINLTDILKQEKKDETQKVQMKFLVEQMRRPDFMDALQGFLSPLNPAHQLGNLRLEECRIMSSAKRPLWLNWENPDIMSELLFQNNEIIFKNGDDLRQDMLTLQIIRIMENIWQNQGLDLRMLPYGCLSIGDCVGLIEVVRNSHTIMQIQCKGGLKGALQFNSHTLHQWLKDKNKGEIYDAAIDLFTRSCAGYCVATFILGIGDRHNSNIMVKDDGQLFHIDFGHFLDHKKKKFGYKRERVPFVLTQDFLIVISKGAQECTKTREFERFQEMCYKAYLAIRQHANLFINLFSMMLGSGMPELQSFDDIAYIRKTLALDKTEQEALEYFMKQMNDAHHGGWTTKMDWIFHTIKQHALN
T1 sequence (P27986 whole entry partner): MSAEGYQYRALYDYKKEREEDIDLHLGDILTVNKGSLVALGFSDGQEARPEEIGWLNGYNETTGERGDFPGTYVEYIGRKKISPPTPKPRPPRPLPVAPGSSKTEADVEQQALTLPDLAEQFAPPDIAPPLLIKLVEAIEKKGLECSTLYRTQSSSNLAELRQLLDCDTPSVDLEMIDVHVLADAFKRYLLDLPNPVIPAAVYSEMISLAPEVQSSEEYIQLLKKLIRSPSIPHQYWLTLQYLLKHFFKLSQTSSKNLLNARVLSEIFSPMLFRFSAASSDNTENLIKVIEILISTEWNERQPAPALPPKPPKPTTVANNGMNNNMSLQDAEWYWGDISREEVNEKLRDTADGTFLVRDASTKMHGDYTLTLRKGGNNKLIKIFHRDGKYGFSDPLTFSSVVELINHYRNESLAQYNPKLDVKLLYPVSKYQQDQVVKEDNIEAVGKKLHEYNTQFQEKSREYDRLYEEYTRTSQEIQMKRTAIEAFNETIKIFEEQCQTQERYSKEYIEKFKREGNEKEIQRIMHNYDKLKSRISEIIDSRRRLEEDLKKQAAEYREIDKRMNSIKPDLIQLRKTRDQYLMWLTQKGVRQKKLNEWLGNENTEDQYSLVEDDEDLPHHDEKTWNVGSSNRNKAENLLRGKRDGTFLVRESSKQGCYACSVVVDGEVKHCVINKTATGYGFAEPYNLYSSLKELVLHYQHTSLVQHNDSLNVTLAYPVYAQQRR

SMILES | IC50 [nM]
C[C@H](/C=C\S(C)(=O)=O)NC(=O)C1(F)CCN(C(=O)[C@H]2COC(C)(C)C[C@@H]2c2ccccc2Cl)CC1 (racemic) [Compound 256, 1-((3*R,4*S)-4-(2-chlorophenyl)-6,6-dimethyltetrahydro-2H-pyran-3-carbonyl)-4-fluoro-N-((R,Z)-4-(methylsulfonyl)but-3-en-2-yl)piperidine-4-carboxamide] | 780
C[C@H](/C=C\S(C)(=O)=O)NC(=O)C1(F)CCN(C(=O)[C@@H]2CCC3(CCC3)C[C@H]2c2ccccc2Cl)CC1 (racemic) [Compound 257, 1-((6*R,7*R)-6-(2-chlorophenyl)spiro[3.5]nonane-7-carbonyl)-4-fluoro-N-((R,Z)-4-(methylsulfonyl)but-3-en-2-yl)piperidine-4-carboxamide] | 420
C[C@H](/C=C\S(C)(=O)=O)NC(=O)C1(F)CCN(C(=O)[C@H]2CCN(C(=O)OC(C)(C)C)C[C@H]2c2ccccc2Cl)CC1 (relative stereo) [Compound 259, tert-butyl (3*R,4*S)-3-(2-chlorophenyl)-4-(4-fluoro-4-(((R,Z)-4-(methylsulfonyl)but-3-en-2-yl)carbamoyl)piperidine-1-carbonyl)piperidine-1-carboxylate] | 660
C[C@H](/C=C\[S@](C)(=N)=O)NC(=O)C1(F)CCN(S(=O)(=O)c2ccc(Br)cc2-c2ccccc2Cl)CC1 (single isomer, unassigned) [Compound 74, 1-((5-bromo-2′-chloro-[1,1′-biphenyl]-2-yl)sulfonyl)-4-fluoro-N-((R,Z)-4-((*R)-S-methylsulfonimidoyl)but-3-en-2-yl)piperidine-4-carboxamide] | 410
COc1ccc(S(=O)(=O)N2CC[C@](F)(C(=O)N[C@H](C)/C=C\S(C)(=O)=O)C[C@H]2C)c(-c2ccccc2Cl)c1 (single isomer, unassigned) [Compound 147, (2*R,4*R)-1-((2′-chloro-5-methoxy-[1,1′-biphenyl]-2-yl)sulfonyl)-4-fluoro-2-methyl-N-((R,Z)-4-(methylsulfonyl)but-3-en-2-yl)piperidine-4-carboxamide] | 390
COc1ccc(S(=O)(=O)N2CC[C@@](F)(C(=O)N[C@H](C)/C=C\S(C)(=O)=O)C[C@@H]2C)c(-c2ccccc2Cl)c1 (single isomer, unassigned) [Compound 148, (2*S,4*S)-1-((2′-chloro-5-methoxy-[1,1′-biphenyl]-2-yl)sulfonyl)-4-fluoro-2-methyl-N-((R,Z)-4-(methylsulfonyl)but-3-en-2-yl)piperidine-4-carboxamide] | 600
C[C@@H]1C[C@](F)(C(=O)NC/C=C\C(=O)N2CC(F)(F)C2)CCN1C(=O)[C@H]1COC(C)(C)C[C@@H]1c1ccccc1Cl (single isomer, unassigned) [Compound 293, (2*R,4*S)-1-((3*R,4*S)-4-(2-chlorophenyl)-6,6-dimethyltetrahydro-2H-pyran-3-carbonyl)-N-((Z)-4-(3,3-difluoroazetidin-1-yl)-4-oxobut-2-en-1-yl)-4-fluoro-2-methylpiperidine-4-carboxamide] | 820
C[C@H](/C=C\S(C)(=O)=O)NC(=O)C1(F)CCN(C(=O)[C@H]2CCN(CC(F)(F)F)C[C@@H]2c2ccccc2Cl)CC1 (single isomer, unassigned) [Compound 307, 1-((3*S,4*S)-3-(2-chlorophenyl)-1-(2,2,2-trifluoroethyl)piperidine-4-carbonyl)-4-fluoro-N-((R,Z)-4-(methylsulfonyl)but-3-en-2-yl)piperidine-4-carboxamide] | 845
CCOCc1cccc(-c2cc(Cl)ccc2S(=O)(=O)N2CCC(F)(C(=O)N[C@@H](C)/C=C\S(C)(=O)=O)CC2)c1 [Compound 17, (S,Z)-1-((5-chloro-3′-(ethoxymethyl)-[1,1′-biphenyl]-2-yl)sulfonyl)-4-fluoro-N-(4-(methylsulfonyl)but-3-en-2-yl)piperidine-4-carboxamide] | 760
COc1cccc(-c2ccccc2S(=O)(=O)N2CCC(F)(C(=O)N[C@@H](C)/C=C\S(C)(=O)=O)CC2)c1 [Compound 19, (S,Z)-4-fluoro-1-((3′-methoxy-[1,1′-biphenyl]-2-yl)sulfonyl)-N-(4-(methylsulfonyl)but-3-en-2-yl)piperidine-4-carboxamide] | 744
C[C@H](/C=C\S(C)(=O)=O)NC(=O)C1(F)CCN(S(=O)(=O)c2ccc(Br)cc2-c2cc(F)ccc2Cl)CC1 [Compound 48, (R,Z)-1-((5-bromo-2′-chloro-5′-fluoro-[1,1′-biphenyl]-2-yl)sulfonyl)-4-fluoro-N-(4-(methylsulfonyl)but-3-en-2-yl)piperidine-4-carboxamide] | 481
C[C@H](/C=C\S(C)(=O)=O)NC(=O)C1(F)CCN(S(=O)(=O)c2ccc(Br)cc2-c2ccc(F)cc2Cl)CC1 [Compound 50, (R,Z)-1-((5-bromo-2′-chloro-4′-fluoro-[1,1′-biphenyl]-2-yl)sulfonyl)-4-fluoro-N-(4-(methylsulfonyl)but-3-en-2-yl)piperidine-4-carboxamide] | 319
CCc1ccccc1-c1cc(Br)ccc1S(=O)(=O)N1CCC(F)(C(=O)N[C@H](C)/C=C\S(C)(=O)=O)CC1 [Compound 51, (R,Z)-1-((5-bromo-2′-ethyl-[1,1′-biphenyl]-2-yl)sulfonyl)-4-fluoro-N-(4-(methylsulfonyl)but-3-en-2-yl)piperidine-4-carboxamide] | 550

Now those with a lower IC50, led by results:

IC50 [nM] | SMILES
310 | COc1ccc(S(=O)(=O)N2CC[C@](F)(C(=O)N[C@H](C)/C=C\S(C)(=O)=O)CC2(C)C)c(-c2ccccc2Cl)c1 (single isomer, unassigned) [Compound 150, (*R)-1-((2′-chloro-5-methoxy-[1,1′-biphenyl]-2-yl)sulfonyl)-4-fluoro-2,2-dimethyl-N-((R,Z)-4-(methylsulfonyl)but-3-en-2-yl)piperidine-4-carboxamide]
304 | C[C@H](/C=C\S(C)(=N)=O)NC(=O)C1(F)CCN(S(=O)(=O)c2ccc(Br)cc2-c2ccccc2Cl)CC1 (mixture of isomers) [Compound 73, 1-((5-bromo-2′-chloro-[1,1′-biphenyl]-2-yl)sulfonyl)-4-fluoro-N-((2R,Z)-4-(S-methylsulfonimidoyl)but-3-en-2-yl)piperidine-4-carboxamide]
280 | COc1ccc(S(=O)(=O)N2CCC(F)(C(=O)N[C@H](/C=C\S(C)(=O)=O)CC(F)(F)F)CC2)c(-c2ccccc2Cl)c1 (single isomer, unassigned) [Compound 239, (*S,Z)-1-((2′-chloro-5-methoxy-[1,1′-biphenyl]-2-yl)sulfonyl)-4-fluoro-N-(5,5,5-trifluoro-1-(methylsulfonyl)pent-1-en-3-yl)piperidine-4-carboxamide]
170 | C[C@H](/C=C\S(C)(=O)=O)NC(=O)[C@@]1(F)CCCN(C(=O)[C@@H]2CN(CC(F)(F)F)C[C@@H]2c2c(F)ccc(F)c2Cl)CC1 (single isomer, unassigned) [Compound 226, (R)-1-((3*S,4*S)-4-(2-chloro-3,6-difluorophenyl)-1-(2,2,2-trifluoroethyl)pyrrolidine-3-carbonyl)-4-fluoro-N-((R,Z)-4-(methylsulfonyl)but-3-en-2-yl)azepane-4-carboxamide]
125 | Cc1ccccc1-c1cc(Br)ccc1S(=O)(=O)N1CCC(F)(C(=O)N[C@H](C)/C=C\S(C)(=O)=O)CC1 [Compound 49, (R,Z)-1-((5-bromo-2′-methyl-[1,1′-biphenyl]-2-yl)sulfonyl)-4-fluoro-N-(4-(methylsulfonyl)but-3-en-2-yl)piperidine-4-carboxamide]
91 | C[C@H](/C=C\S(C)(=O)=O)NC(=O)C1(F)CCN(S(=O)(=O)c2ccc(Cl)cc2-c2ccccc2Cl)CC1 [Compound 23, (R,Z)-1-((2′,5-dichloro-[1,1′-biphenyl]-2-yl)sulfonyl)-4-fluoro-N-(4-(methylsulfonyl)but-3-en-2-yl)piperidine-4-carboxamide]
54 | O=C(NC1C=CS(=O)(=O)C1)C1(F)CCN(S(=O)(=O)c2ccc(Br)cc2-c2ccccc2Cl)CC1 (racemic) [Compound 65, rac-1-((5-bromo-2′-chloro-[1,1′-biphenyl]-2-yl)sulfonyl)-N-(1,1-dioxido-2,3-dihydrothiophen-3-yl)-4-fluoropiperidine-4-carboxamide]
38 | C[C@@H](/C=C\S(C)(=O)=O)NC(=O)C1(F)CCN(S(=O)(=O)c2ccc(C(F)(F)F)cc2-c2ccccc2Cl)CC1 [Compound 18, (S,Z)-1-((2′-chloro-5-(trifluoromethyl)-[1,1′-biphenyl]-2-yl)sulfonyl)-4-fluoro-N-(4-(methylsulfonyl)but-3-en-2-yl)piperidine-4-carboxamide]
